According to ChEMBL document CHEMBL1132754, “Photosensitizers related to purpurin-18-N-alkylimides: a comparative in vivo tumoricidal ability of ester versus amide functionalities” (Bioorg Med Chem Lett, 2000):

Columns and labels:
[1] = tested on: Mus musculus; assay: The in vivo tumor uptake was determined by reflectance spectroscopy in mouse; assay type: functional
[2] = tested on: Mus musculus; assay: Percent tumor response in mice (implanted with RIF tumor) on day 7 at 24 hours post injection (1.0 umol/kg); assay type: functional
[3] = tested on: Mus musculus; assay: Tumor versus muscle uptake ratio in mice (implanted with RIFtumor)by in vivo reflectance spectroscopy at 5 min, 24 hr and 48 hr post injection (5.0 umol/kg); assay type: functional, Muscle tissue
[4] = Partition coefficient (logP); assay type: physicochemical; conditions: octanol/water
[5] = tested on: Mus musculus; assay: Photodynamic therapy response in mice (implanted with RIF tumor) on day 20 after administering the compound (0.4 umol/kg); assay type: functional
[6] = tested on: Mus musculus; assay: Photodynamic therapy response in mice (implanted with RIF tumor)after administering the compound (0.4 umol/kg); Decreased; assay type: functional, organism-based
[7] = tested on: Mus musculus; assay: Photodynamic therapy response in mice (implanted with RIF tumor) on day 10 after administering the compound (0.4 umol/kg); Complete response; assay type: functional, organism-based
[8] = tested on: Mus musculus; assay: Photodynamic therapy response in mice (implanted with RIF tumor) on day 25 after administering the compound (0.4 umol/kg);Tumor regrowth; assay type: functional, organism-based
[9] = tested on: Mus musculus; assay: Photodynamic therapy response in mice (implanted with RIF tumor) on day 15 after administering the compound (0.4 umol/kg); assay type: functional
[10] = tested on: Mus musculus; assay: Percent tumor response in mice (implanted with RIF tumor) on day 30 after administering the compound (1.0 umol/kg); assay type: functional

SMILES	Tumor uptake [1] [µM/kg]	Tumor response [2] [%]	Ratio [3]	logP [4]	Response [5] [%]	Response [6]	Response [7]	Response [8]	Response [9] [%]	Response [10] [%]
CCCCCCCOC(C)C1=C(C)c2cc3nc(c4c5[nH]c(cc6[nH]c(cc1n2)c(C)c6CC)c(C)c5C(=O)N(CCCCCC)C4=O)[C@@H](CCC(=O)NCCCCCC)[C@@H]3C (stereo partly specified)	6.58	50	3.59							
CCCCCCCCCCOC(C)C1=C(C)c2cc3nc(c4c5[nH]c(cc6[nH]c(cc1n2)c(C)c6CC)c(C)c5C(=O)N(CCCCCC)C4=O)[C@@H](CCC(=O)OC)[C@@H]3C (stereo partly specified)	4.2	100	3.23							
CCCCCCNC(=O)CC[C@@H]1c2nc(cc3[nH]c(cc4[nH]c(cc5nc6c2C(=O)N(CCCCCC)C(=O)C6=C5C)c(CC)c4C)c(C(C)OCCC)c3C)[C@H]1C (stereo partly specified)	7	67	2.69	10.3						
CCCCCCNC(=O)CC[C@@H]1c2nc(cc3[nH]c(cc4[nH]c(cc5nc6c2C(=O)N(CCCCCC)C(=O)C6=C5C)c(CC)c4C)c(C(C)OCCCCC)c3C)[C@H]1C (stereo partly specified)	7.33	20	3.32	11.3						
CCCCCCN1C(=O)c2c3nc(cc4nc(cc5[nH]c(cc6[nH]c2c(c6C)C1=O)c(CC)c5C)C(C(C)OCCCC)=C4C)[C@@H](C)[C@@H]3CCC(=O)OC (stereo partly specified)	12.9	100	2.22	9.3						
CCCCCCCCOC(C)C1=C(C)c2cc3nc(c4c5[nH]c(cc6[nH]c(cc1n2)c(C)c6CC)c(C)c5C(=O)N(CCCCCC)C4=O)[C@@H](CCC(=O)OC)[C@@H]3C (stereo partly specified)	15.7	10	2.9	11.3						
CCCCCCNC(=O)CC[C@@H]1c2nc(cc3[nH]c(cc4[nH]c(cc5nc6c2C(=O)N(CCCCCC)C(=O)C6=C5C)c(CC)c4C)c(C(C)OC)c3C)[C@H]1C (stereo partly specified)	6.4	0	4.35	9.3						
CCCCCCOC(C)C1=C(C)c2cc3nc(c4c5[nH]c(cc6[nH]c(cc1n2)c(C)c6CC)c(C)c5C(=O)N(CCCCCC)C4=O)[C@@H](CCC(=O)OC)[C@@H]3C (stereo partly specified)	7.27	100	8	10.3	60	Complete response	Complete response	Complete response	80	100
